Key:
[1] = target: T1, Type-1 angiotensin II receptor (Homo sapiens) (UniProt P30556); assay: Binding affinity to human AT1 receptor expressed in CHO cells assessed as dissociation rate constant at 3 nM incubated for 60 mins measured after isotopic dilution; format: cell-based
T1 sequence (whole entry): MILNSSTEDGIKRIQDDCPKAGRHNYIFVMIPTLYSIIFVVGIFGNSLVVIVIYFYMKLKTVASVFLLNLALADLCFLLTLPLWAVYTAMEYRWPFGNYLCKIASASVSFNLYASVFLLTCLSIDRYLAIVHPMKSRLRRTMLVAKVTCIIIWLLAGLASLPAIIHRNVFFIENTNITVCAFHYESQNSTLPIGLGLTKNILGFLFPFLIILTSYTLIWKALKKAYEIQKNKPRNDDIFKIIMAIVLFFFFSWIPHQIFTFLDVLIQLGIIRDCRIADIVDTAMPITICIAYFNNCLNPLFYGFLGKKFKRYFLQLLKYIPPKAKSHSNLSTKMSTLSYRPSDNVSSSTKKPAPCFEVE

[2] = target: T1, Type-1 angiotensin II receptor (Homo sapiens); assay: Displacement of [3H]-candesartan from human AT1 receptor expressed in CHO cells assessed as dissociation rate constant at 100 nM pre-incubated with cells followed by compound washout and subsequent addition of [3H]-candesartan up to 60 mins; format: cell-based
[3] = target: T1, Type-1 angiotensin II receptor (Homo sapiens); assay: (§1) Antagonist activity at human AT1 receptor expressed in CHO cells assessed as reduction in angiotensin 2-induced inositol phosphate accumulation by measuring dissociation rate constant preincubated with cells followed by compound washout and subsequent addition of angiotensin 2 for 5 mins; format: functional, cell-based
[4] = target: T1, Type-1 angiotensin II receptor (Homo sapiens); assay: Binding affinity to human AT1 receptor expressed in CHO cells assessed as dissociation rate constant at 3 nM incubated for 60 mins followed by compound washout in presence of losartan; format: cell-based
[5] = target: T1, Type-1 angiotensin II receptor (Homo sapiens); assay: Binding affinity to human AT1 receptor expressed in CHO cells assessed as residence time at 3 nM incubated for 60 mins followed by compound washout; format: cell-based
[6] = target: T1, Type-1 angiotensin II receptor (Homo sapiens); assay: Binding affinity to human AT1 receptor expressed in CHO cells assessed as residence time at 3 nM incubated for 60 mins measured after isotopic dilution; format: cell-based
[7] = target: T1, Type-1 angiotensin II receptor (Homo sapiens); assay: Displacement of [3H]-candesartan from human AT1 receptor expressed in CHO cells assessed as residence time at 100 nM pre-incubated with cells followed by compound washout and subsequent addition of [3H]-candesartan up to 60 mins; format: cell-based
[8] = target: T1, Type-1 angiotensin II receptor (Homo sapiens); assay: as §1, with “residence time” for “dissociation rate”, “washout in presence of losartan” for “washout”; format: functional, cell-based
[9] = target: T1, Type-1 angiotensin II receptor (Homo sapiens); assay: as §1, with “washout in presence of losartan” for “washout”; format: functional, cell-based
[10] = target: T1, Type-1 angiotensin II receptor (Homo sapiens); assay: Binding affinity to human AT1 receptor expressed in CHO cells assessed as dissociation rate constant at 3 nM incubated for 60 mins followed by compound washout; format: cell-based
[11] = target: T1, Type-1 angiotensin II receptor (Homo sapiens); assay: Binding affinity to human AT1 receptor expressed in CHO cells assessed as residence time at 3 nM incubated for 60 mins followed by compound washout in presence of losartan; format: cell-based
[12] = target: T1, Type-1 angiotensin II receptor (Homo sapiens); assay: Antagonist activity at human AT1 receptor expressed in CHO cells assessed as reduction in angiotensin 2-induced inositol phosphate accumulation by measuring residence time constant preincubated with cells followed by compound washout and subsequent addition of angiotensin 2 for 5 mins; format: functional, cell-based
[13] = target: T1, Type-1 angiotensin II receptor (Homo sapiens); assay: Binding affinity to human AT1 receptor expressed in CHO cells assessed as dissociation rate constant at 1.5 nM incubated for 60 mins followed by compound washout in presence of losartan; format: cell-based
[14] = target: T1, Type-1 angiotensin II receptor (Homo sapiens); assay: Binding affinity to human AT1 receptor expressed in CHO cells assessed as dissociation rate constant at 1.5 nM incubated for 60 mins measured after isotopic dilution; format: cell-based
[15] = target: T1, Type-1 angiotensin II receptor (Homo sapiens); assay: Binding affinity to human AT1 receptor expressed in CHO cells assessed as residence time at 1.5 nM incubated for 60 mins followed by compound washout in presence of losartan; format: cell-based
[16] = target: T1, Type-1 angiotensin II receptor (Homo sapiens); assay: Binding affinity to human AT1 receptor expressed in CHO cells assessed as residence time at 1.5 nM incubated for 60 mins followed by compound washout; format: cell-based
[17] = target: T1, Type-1 angiotensin II receptor (Homo sapiens); assay: Binding affinity to human AT1 receptor expressed in CHO cells assessed as residence time at 1.5 nM incubated for 60 mins measured after isotopic dilution; format: cell-based
[18] = target: T1, Type-1 angiotensin II receptor (Homo sapiens); assay: Binding affinity to human AT1 receptor expressed in CHO cells assessed as dissociation rate constant at 1.5 nM incubated for 60 mins followed by compound washout; format: cell-based
[19] = target: T1, Type-1 angiotensin II receptor (Homo sapiens); assay: Displacement of [3H]-candesartan from human AT1 receptor expressed in CHO cells assessed as residence time at 1.5 nM pre-incubated with cells followed by compound washout and subsequent addition of [3H]-candesartan up to 60 mins; format: cell-based
[20] = target: T1, Type-1 angiotensin II receptor (Homo sapiens); assay: Displacement of [3H]-candesartan from human AT1 receptor expressed in CHO cells assessed as dissociation rate constant at 1.5 nM pre-incubated with cells followed by compound washout and subsequent addition of [3H]-candesartan up to 60 mins; format: cell-based

Compound | K [1] | K [2] | K [3] | K [4] | TIME [5] | TIME [6] | TIME [7] | TIME [8] | K [9] | K [10] | TIME [11] | TIME [12] | K [13] | K [14] | TIME [15] | TIME [16] | TIME [17] | K [18] | TIME [19] | K [20]
CCCCC1=NC2(CCCC2)C(=O)N1Cc1ccc(-c2ccccc2-c2nnn[nH]2)cc1 | 0.104 min⁻¹ | 0.04 min⁻¹ | 0.039 min⁻¹ | 0.101 min⁻¹ | 0.15 h | 0.167 h | 0.417 h | 0.283 h | 0.058 min⁻¹ | 0.128 min⁻¹ | 0.15 h | 0.433 h | – | – | – | – | – | – | – | –
CCCCc1nc(Cl)c(C(=O)O)n1Cc1ccc(-c2ccccc2-c2nn[nH]n2)cc1 | – | – | 0.016 min⁻¹ | – | – | – | – | 0.8 h | 0.021 min⁻¹ | – | – | 1.05 h | – | – | – | – | – | – | – | –
CCCCC(=O)N(Cc1ccc(-c2ccccc2-c2nn[nH]n2)cc1)[C@@H](C(=O)O)C(C)C | – | – | – | – | – | – | – | – | – | – | – | – | 0.049 min⁻¹ | 0.041 min⁻¹ | 0.333 h | 0.6 h | 0.417 h | 0.028 min⁻¹ | – | –
CCOc1nc2cccc(C(=O)O)c2n1Cc1ccc(-c2ccccc2-c2nnn[nH]2)cc1 | – | – | 0.002 min⁻¹ | – | – | – | – | 4.45 h | 0.003 min⁻¹ | – | – | 7.57 h | 0.005 min⁻¹ | 0.006 min⁻¹ | 3.62 h | 16.6 h | 2.7 h | 0.001 min⁻¹ | 3.65 h | 0.004 min⁻¹

From ChEMBL document CHEMBL4052724, “Influence of the cellular environment on ligand binding kinetics at membrane-bound targets” (Bioorg Med Chem Lett, 2017)
